Molecules are shown by their SMILES. Like-named read-outs stand apart in the source and are kept apart here.

One experiment deals with T1, Aiolos (Homo sapiens, UniProt Q96SW2+Q9UKT9).
T1 construct: expressed in transfected cells; host or cells: DF15 multiple myeloma cells
The experiment can be described thus: Aiolos degradation, ePL luminescence assay in DF15 cells expressing ePL-tagged Aiolos. The note with it: for DC50: read-out: Degradation of Aiolos IC50, DF15 cells. It is filed as cell-based. The procedure: FIG. 1 illustrates that Compound 2 and Compound 3 degraded Aiolos protein in a time and concentration dependent manner. DF15 cells expressing Enhanced ProLabel (ePL)-tagged Aiolos were incubated with Compound 2 (triangle) or Compound 3 (square) for 45 minutes, 90 minutes, or 3 hours at the indicated concentrations. Cell extracts were then generated and the amount of Aiolos-ePL protein was determined by ePL luminescence assay.
The relative effectiveness of Compound 2 and Compound 3 to promote the destruction of Aiolos protein by the CRL4^CRBN E3 ubiquitin ligase was investigated in DF15 myeloma cells at different time points (45 minutes, 90 minutes, and 3 hours). DF15 cells expressing Enhanced ProLabel (ePL)-tagged Aiolos were incubated with Compound 2 or Compound 3 for 45 minutes, 90 minutes, or 3 hours. Cell extracts were then generated and the amount of Aiolos ePL protein was determined by ePL luminescence assay. Values shown in Table 1 correspond to data presented in FIG. 1 for Aiolos content vs. concentration.

A further experiment concerns OPM2 cells. The experiment can be described thus: cells. Format: cell-based, human. Conditions: for IC50: Homo sapiens. As for the experimental part:
The effect of the stabilizing mutations on cell proliferation was also measured.

The subject of another experiment is Aiolos and Ikaros. Kind of experiment: Aiolos and Ikaros degradation and re-expression by flow cytometry in H929-1051 and OPM2-P10 cells. It is filed as cell-based, human. The procedure:
The cell lines were treated with a single continuous exposure to Compound 2, with no washout, and the levels of Aiolos and Ikaros were measured by flow cytometry. After treatment there was greater than 70% degradation of Aiolos and Ikaros within 3 to 6 hours, depending on the cell line (FIG. 7A and FIG. 7B). The depletion of substrates was sustained for up to 70 hours in H929-1051 cells or up to 100 hours in OPM2-P10 cells (FIG. 7A and FIG. 7B). Increasing the concentration 10-fold to 0.1 μM produced little to no additional degradation (FIG. 7A and FIG. 7B).
The effect of transient exposures of H929-1051 cells to Compound 2 on the degradation of Aiolos and Ikaros was also evaluated. A short transient exposure of 15 minutes at 0.1 μM Compound 2 induced Aiolos and Ikaros degradation (FIG. 8). Although the extent of degradation (25% to 50%) was not complete, a prolonged pharmacodynamic (PD) effect was seen that lasted between 25 and 50 hours post-exposure (FIG. 8).
To further understand the kinetics of Compound 2 exposure and Aiolos and Ikaros degradation, a longer exposure of 6 hours to Compound 2 (0.01 and 0.1 μM), followed by washout was investigated. Treatment with Compound 2 produced greater than 70% degradation of Aiolos and Ikaros (FIG. 9). […] Greater than 75% substrate recovery was seen by 25 hours in cells exposed to 0.01 μM Compound 2 and within 75 to 100 hours in cultures exposed to 0.1 μM Compound 2 (FIG. 9).

The next experiment concerns interferon gamma (IFN-γ). The experiment can be described thus: IFN-γ production by TCR-activated healthy PBMCs. Conditions: 24 hours. Format: cell-based, human. The procedure: FIG. 21A-FIG. 21C illustrate that Compound 2 is a potent inducer of effector cytokines. […] (FIG. 21A) IL-2, (FIG. 21B) IFN-γ, and (FIG. 21C) TNF-α. Data shown are an average from three or four donors and are represented as fold change over DMSO control; error bars represent standard error of the mean (SEM).
The immunomodulatory activity of Compound 2 on T cell receptor (TCR)-activated healthy PBMCs was assessed. […] This increased in cytokine secretion was evident as early as 24 hours after introduction of Compound 2 with the peak of the effector cytokine production induced by Compound 2 being 5.5-fold for IL-2, 4.5-fold for interferon gamma (IFN-γ), and 2-fold for tumor necrosis factor alpha (TNF-α) above the vehicle control (FIG. 21A-FIG. 21C, respectively).

The test system of the next experiment is Aiolos, Ikaros, ZFP91. The experiment can be described thus: Immunoblot of OPM2 cells after five-day incubation. It is filed as cell-based, human. Conditions: Compound 2 alone. As for the experimental part: FIG. 4 illustrates that Compound 2 induced the degradation of Ikaros, Aiolos, ZFP91, c-Myc, and IRF4, which correlates with induction of the apoptotic protein cleaved-Caspase 3, and the cell cycle arrest protein p21. Immunoblot analysis of OPM2 parental cells incubated with Compound 2 at the indicated concentrations is shown. Actin is a loading control.
Ikaros and Aiolos degradation was followed by reduction in the levels of two additional and highly critical transcription factors, c-Myc and IRF4 (FIG. 4). The loss or reduction of these factors was associated with an increase of the cyclin-dependent kinase inhibitor p21 and induction of apoptosis, as measured by cleaved caspase-3 (FIG. 4).
(In western blotting, separated proteins are transferred to a membrane and probed.)

Setting [1] is: continuous exposure, OPM2-P10 cells.

T1 sequence (Q9UKT9 whole entry): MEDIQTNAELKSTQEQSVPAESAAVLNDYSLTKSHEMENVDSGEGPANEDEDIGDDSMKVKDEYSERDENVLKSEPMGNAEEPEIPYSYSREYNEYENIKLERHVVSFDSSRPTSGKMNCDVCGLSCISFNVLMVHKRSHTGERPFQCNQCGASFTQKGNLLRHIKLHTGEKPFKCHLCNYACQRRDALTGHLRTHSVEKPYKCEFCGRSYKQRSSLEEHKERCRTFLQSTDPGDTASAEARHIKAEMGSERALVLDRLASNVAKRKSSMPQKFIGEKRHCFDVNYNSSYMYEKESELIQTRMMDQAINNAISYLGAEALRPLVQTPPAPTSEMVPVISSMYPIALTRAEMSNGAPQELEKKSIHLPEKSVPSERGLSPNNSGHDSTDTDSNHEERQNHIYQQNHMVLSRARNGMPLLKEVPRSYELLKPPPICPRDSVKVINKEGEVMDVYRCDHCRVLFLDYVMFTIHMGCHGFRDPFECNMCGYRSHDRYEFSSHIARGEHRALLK
T1 sequence (Q96SW2 whole entry): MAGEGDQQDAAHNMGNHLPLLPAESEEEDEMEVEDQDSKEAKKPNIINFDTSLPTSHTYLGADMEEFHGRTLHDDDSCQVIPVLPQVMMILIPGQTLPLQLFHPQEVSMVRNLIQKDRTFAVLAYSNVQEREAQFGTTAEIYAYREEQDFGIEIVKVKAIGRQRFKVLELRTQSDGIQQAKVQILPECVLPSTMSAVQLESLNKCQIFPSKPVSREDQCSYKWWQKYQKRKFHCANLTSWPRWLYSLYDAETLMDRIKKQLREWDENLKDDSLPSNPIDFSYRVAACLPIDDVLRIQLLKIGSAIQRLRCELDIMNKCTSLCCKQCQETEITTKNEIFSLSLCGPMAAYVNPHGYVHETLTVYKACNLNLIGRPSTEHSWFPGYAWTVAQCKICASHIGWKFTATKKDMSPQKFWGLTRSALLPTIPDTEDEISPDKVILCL
T1 sequence (Q16531 2-1140, further chain): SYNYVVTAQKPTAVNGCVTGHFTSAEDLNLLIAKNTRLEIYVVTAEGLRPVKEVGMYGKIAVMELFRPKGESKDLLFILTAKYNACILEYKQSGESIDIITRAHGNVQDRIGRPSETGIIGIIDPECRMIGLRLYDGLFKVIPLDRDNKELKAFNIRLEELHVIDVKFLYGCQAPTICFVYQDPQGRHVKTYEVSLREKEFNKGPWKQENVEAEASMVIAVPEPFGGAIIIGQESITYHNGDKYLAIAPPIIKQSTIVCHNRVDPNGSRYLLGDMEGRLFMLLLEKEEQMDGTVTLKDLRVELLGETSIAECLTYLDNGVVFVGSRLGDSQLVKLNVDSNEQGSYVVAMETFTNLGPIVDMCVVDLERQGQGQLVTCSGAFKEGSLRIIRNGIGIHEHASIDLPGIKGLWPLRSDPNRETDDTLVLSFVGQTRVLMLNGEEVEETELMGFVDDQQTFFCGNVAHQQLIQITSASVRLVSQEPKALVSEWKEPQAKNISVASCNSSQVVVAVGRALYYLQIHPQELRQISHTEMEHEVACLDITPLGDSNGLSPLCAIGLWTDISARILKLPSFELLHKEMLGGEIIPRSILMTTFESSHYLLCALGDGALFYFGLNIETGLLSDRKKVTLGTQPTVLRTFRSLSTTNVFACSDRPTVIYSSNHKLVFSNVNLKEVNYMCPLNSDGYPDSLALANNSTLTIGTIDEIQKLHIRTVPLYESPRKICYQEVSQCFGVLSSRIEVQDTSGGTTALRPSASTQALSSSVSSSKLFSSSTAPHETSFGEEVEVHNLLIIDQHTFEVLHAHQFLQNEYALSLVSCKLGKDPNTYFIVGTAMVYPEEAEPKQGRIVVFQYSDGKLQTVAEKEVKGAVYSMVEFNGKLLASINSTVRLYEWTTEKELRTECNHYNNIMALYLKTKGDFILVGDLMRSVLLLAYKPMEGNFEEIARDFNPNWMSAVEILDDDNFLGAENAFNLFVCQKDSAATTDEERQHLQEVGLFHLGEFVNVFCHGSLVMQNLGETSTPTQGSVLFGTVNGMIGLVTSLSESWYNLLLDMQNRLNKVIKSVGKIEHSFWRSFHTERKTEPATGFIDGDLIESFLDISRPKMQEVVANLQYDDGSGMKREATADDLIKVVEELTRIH

As a reminder, the inhibition is the percentage by which the read-out fell short of the control. As to `N#Cc1ccc(N2CCN(Cc3ccc(COc4cccc5c4CN([C@H]4CCC(=O)NC4=O)C5=O)cc3)CC2)c(F)c1` [Compound 2, (S)-4-(4-(4-(((2-(2,6-dioxopiperidin-3-yl)-1-oxoisoindolin-4-yl)oxy)methyl)benzyl)piperazin-1-yl)-3-fluorobenzonitrile], the “manner of Aiolos degradation” value on Aiolos (45 minutes, 90 minutes, 3 hours) was “time-dependent and concentration-dependent”. The inhibition at 0.001 µM on Aiolos (DF15, read-out: inhibition at 0.001 μM) amounted to 27%. Also, the DC50 at Aiolos (45 minutes incubation) is above 100 nM; on Aiolos (90 minutes incubation) it was 0.36 nM; at Aiolos (3 hours incubation), 0.031 nM. Besides, the IC50 was above 100 nM in the experiment on OPM2 cells (OPM-2, cells overexpressing stabilized Ikaros mutants (Ikaros-Q146H or Ikaros-G151A), read-out: concentration at which cells had their proliferation inhibited by 50%); 0.06 nM with OPM2 cells (OPM-2, overexpressing Aiolos Q147H, read-out: Inhibition of Proliferation of OPM2 Cells IC50); 0.08 nM with OPM2 cells (OPM-2, overexpressing Aiolos, read-out: Inhibition of Proliferation of OPM2 Cells IC50); above 100 nM with OPM2 cells (OPM-2, overexpressing Ikaros-G151A, read-out: Inhibition of Proliferation of OPM2 Cells IC50); above 100 nM in the experiment with OPM2 cells (OPM-2, overexpressing Ikaros-Q146H, read-out: Inhibition of Proliferation of OPM2 Cells IC50); 0.13 nM in the experiment on OPM2 cells (OPM-2, overexpressing Ikaros, read-out: Inhibition of Proliferation of OPM2 Cells IC50). Moreover, in the experiment with OPM2 cells (OPM-2, overexpressing ZFP91-Q400H, read-out: Inhibition of Proliferation of OPM2 Cells IC50), the IC50 stood at 0.08 nM. Moreover, the “increase of the 50% inhibitory concentration relative to the parental cells” value in the experiment on OPM2 cells (cells overexpressing stabilized Ikaros mutants) is reported as “more than 200 fold”. The “degradation of Aiolos and Ikaros” value in the experiment on Aiolos and Ikaros (6 hours exposure (0.01 and 0.1 μM) followed by washout) is given as “greater than 70%”; in the experiment on Aiolos and Ikaros (single continuous exposure, no washout, H929-1051 and OPM2-P10), “greater than 70%”. Besides, the “duration of sustained depletion of substrates” value in the experiment with Aiolos and Ikaros (continuous exposure, H929-1051 cells) is listed as “up to 70 hours”; in the experiment on Aiolos and Ikaros (setting [1]) it was “up to 100 hours”. For the same molecule, the “duration of sustained degradation of both proteins (Aiolos and Ikaros)” value with Aiolos and Ikaros (setting [1]) is “more than 150 hours”. Also, the “peak IFN-γ production above the vehicle control” value in the experiment with interferon gamma (IFN-γ) is given as 4.5 fold. Also, the “expression level of Aiolos and Ikaros, as well as ZFP91” value in the experiment on Aiolos, Ikaros, ZFP91 is “significantly decreased”.
